Read-outs that look alike come from different tables or passages of the source. Marks after values point to notes of the source that are not given here.
Legend:
[1] = logP determination by HPLC (EEC Directive 79/831 Annex V.A8), LC-MS
[2] = test system: Phytophthora infestans; experiment: whole plant or invertebrate; format: in vivo; settings: in Solanum lycopersicum, 168 h, read-out: efficacy
[3] = pH 2.7
[4] = physchem; settings: pH 2.7
[5] = pH 2.7, log P (pH2.7), pH 2.7, value given in the preparation text
[6] = pH 2.7, logP, * acidic range, pH 2.7, 0.1% aqueous formic acid/acetonitrile
[7] = * acidic range, pH 2.7, 0.1% aqueous formic acid/acetonitrile
[8] = pH 7.8, logP, ** neutral range, pH 7.8, 0.001 molar aqueous ammonium bicarbonate/acetonitrile

Structure (SMILES): Cc1cc(C(F)(F)F)nn1CC(=O)N1CCC(c2nc(CSc3cccc4ccccc34)cs2)CC1 [Compound I-1, 2-[5-Methyl-3-(trifluoromethyl)-1H-pyrazol-1-yl]-1-(4-{4-[(1-naphthylsulphanyl)methyl]-1,3-thiazol-2-yl}piperidin-1-yl)ethanone]
- chromatographic logP [1, 5]: 4.33
- chromatographic logP [1, 6]: 4.33
- pest or weed control at 500 ppm [2]: ≥ 70%

Structure (SMILES): O=C(Cn1nc(C(F)F)cc1C(F)F)N1CCC(c2nc(CSc3nnnn3-c3ccccc3)cs2)CC1 [Compound I-35]
- logP [3]: 3.11*

Structure (SMILES): Cc1cc(C(F)(F)F)nn1CC(=O)N1CCC(c2nc(CSC3CCCCC3)cs2)CC1 [Compound I-3, 1-(4-{4-[(Cyclohexylsulphanyl)methyl]-1,3-thiazol-2-yl}piperidin-1-yl)-2-[5-methyl-3-(trifluoromethyl)-1H-pyrazol-1-yl]ethanone]
- chromatographic logP [1, 5]: 4.3
- chromatographic logP [1, 6]: 4.3
- pest or weed control at 500 ppm [2]: ≥ 70%

Structure (SMILES): Cc1ccc(F)c(NC(=O)N2CCC(c3nc(CSc4nnnn4-c4ccccc4)cs3)CC2)c1 [Compound I-60]
- logP [3]: 3.28*

Structure (SMILES): Cc1cc(C(F)(F)F)nn1CC(=O)N1CCC(c2nc(CSC34CC5CC(CC(C5)C3)C4)cs2)CC1 [Compound I-2, 1-[4-(4-{[(3S,5S,7S)-Adamantan-1-ylsulphanyl]methyl}-1,3-thiazol-2-yl)piperidin-1-yl]-2-[5-methyl-3-(trifluoromethyl)-1H-pyrazol-1-yl]ethanone]
- log P (pH2.7) [3]: 5.21
- logP [3]: 5.21*

Structure (SMILES): Cc1cc(C(F)(F)F)nn1CC(=O)N1CCC(c2nc(CS(=O)(=O)c3nnnn3-c3ccccc3)cs2)CC1 [Compound I-8, 2-[5-Methyl-3-(trifluoromethyl)-1H-pyrazol-1-yl]-1-[4-(4-{[(1-phenyl-1H-tetrazol-5-yl)sulphonyl]methyl}-1,3-thiazol-2-yl)piperidin-1-yl]ethanone]
- chromatographic logP [1, 5]: 3.1
- chromatographic logP [1, 6]: 3.07
- pest or weed control at 500 ppm [2]: ≥ 70%

Structure (SMILES): Cc1ccc(C)c(NC(=S)N2CCC(c3nc(CSc4nnnn4-c4ccccc4)cs3)CC2)c1 [Compound I-98]
- logP [3]: 3.52*

Structure (SMILES): Cc1cc(C(F)(F)F)nn1CC(=O)N1CCC(c2nc(C[S+]([O-])c3cccc4ccccc34)cs2)CC1 (stereo not shown) [Compound I-13, 2-[5-Methyl-3-(trifluoromethyl)-1H-pyrazol-1-yl]-1-(4-{4-[(1-naphthylsulphinyl)methyl]-1,3-thiazol-2-yl}piperidin-1-yl)ethanone]
- chromatographic logP [1, 5]: 2.86
- chromatographic logP [1, 6]: 2.86
- pest or weed control at 500 ppm [2]: ≥ 70%

Structure (SMILES): Cc1ccc(C)c(NC(=O)N2CCC(c3nc(CSc4nnnn4-c4ccccc4)cs3)CC2)c1 [Compound I-84]
- logP [3]: 3.26*

Structure (SMILES): Cc1ccc(Cl)c(NC(=O)N2CCC(c3nc(CSc4nnnn4-c4ccccc4)cs3)CC2)c1 [Compound I-87]
- logP [3]: 3.72*

Structure (SMILES): Fc1ccc(F)c(NC(=S)N2CCC(c3nc(CSc4nnnn4-c4ccccc4)cs3)CC2)c1 [Compound I-23]
- logP [1, 7]: 3.26*

Structure (SMILES): Cc1cc(C(F)(F)F)nn1CC(=O)N1CCC(c2nc(CS(=O)(=O)C34CC5CC(CC(C5)C3)C4)cs2)CC1 [Compound I-6, 1-[4-(4-{[(3S,5S,7S)-Adamantan-1-ylsulphonyl]methyl}-1,3-thiazol-2-yl)piperidin-1-yl]-2-[5-methyl-3-(trifluoromethyl)-1H-pyrazol-1-yl]ethanone]
- log P (pH2.7) [3]: 3.42
- logP [3]: 3.4*

Structure (SMILES): Cc1cc(C(F)(F)F)nn1CC(=O)N1CCC(c2nc(CS(=O)(=O)c3cccc4ccccc34)cs2)CC1 [Compound I-10, 2-[5-Methyl-3-(trifluoromethyl)-1H-pyrazol-1-yl]-1-(4-{4-[(1-naphthylsulphonyl)methyl]-1,3-thiazol-2-yl}piperidin-1-yl)ethanone]
- chromatographic logP [1, 5]: 3.21
- chromatographic logP [1, 6]: 3.19
- pest or weed control at 500 ppm [2]: ≥ 70%

Structure (SMILES): O=C(Cn1nc(C(F)(F)F)cc1C(F)(F)F)N1CCC(c2nc(CSc3nnnn3-c3ccccc3)cs2)CC1 [Compound I-34]
- logP [3]: 3.8*

Structure (SMILES): Cc1cc(C(F)(F)F)nn1CC(=O)N1CCC(c2nc(CSc3nccn3-c3ccccc3)cs2)CC1 [Compound I-61]
- logP [1, 7]: 2.22*

Structure (SMILES): Fc1ccc(Br)c(NC(=S)N2CCC(c3nc(CSc4nnnn4-c4ccccc4)cs3)CC2)c1 [Compound I-66]
- logP [1, 7]: 3.46*

Structure (SMILES): O=C(Cn1nc(C(F)F)cc1C(F)F)N1CCC(c2nc(CSc3nccn3-c3ccccc3)cs2)CC1 [Compound I-65]
- logP [1, 7]: 2.13*

Structure (SMILES): Cc1ccc(C)c(NC(=O)N2CCC(c3nc(CSC4CCCCC4)cs3)CC2)c1 [Compound I-16]
- logP [1, 7]: 4.38*

Structure (SMILES): O=C(Cc1cc(Cl)ccc1Cl)N1CCC(c2nc(CSc3nnnn3-c3ccccc3)cs2)CC1 [Compound I-46]
- logP [3]: 3.8*

Structure (SMILES): CC(C)(C)OC(=O)N1CCC(c2nc(CSC(=N)N)cs2)CC1 [IX-1, Amino[({2-[1-(tert-butoxycarbonyl)piperidin-4-yl]-1,3-thiazol-4-yl}methyl)sulphanyl]methaniminium iodide]
- chromatographic logP [4]: 1.44

Structure (SMILES): Cc1cc(C(F)(F)F)nn1CC(=S)N1CCC(c2nc(CSc3nnnn3-c3ccccc3)cs2)CC1 [Compound I-15, 2-[5-Methyl-3-(trifluoromethyl)-1H-pyrazol-1-yl]-1-[4-(4-{[(1-phenyl-1H-tetrazol-5-yl)sulphanyl]methyl}-1,3-thiazol-2-yl)piperidin-1-yl]ethanethione]
- chromatographic logP [1, 5]: 3.82
- chromatographic logP [1, 6]: 2.82
- chromatographic logP [1, 8]: 2.87
- pest or weed control at 500 ppm [2]: ≥ 70%

Structure (SMILES): Cc1ccc(Cl)cc1NC(=O)N1CCC(c2nc(CSc3nnnn3-c3ccccc3)cs2)CC1 [Compound I-24]
- logP [3]: 3.43*

Structure (SMILES): O=C(Cn1nc(C(F)(F)F)cc1C(F)(F)F)N1CCC(c2nc(CS(=O)(=O)c3nnnn3-c3ccccc3)cs2)CC1 [Compound I-26]
- logP [1, 7]: 3.59*

Structure (SMILES): Cc1noc(C)c1NC(=S)N1CCC(c2nc(CSc3nnnn3-c3ccccc3)cs2)CC1 [Compound I-99]
- logP [1, 7]: 2.7*

Structure (SMILES): CC(C)(C)OC(=O)N1CCC(c2nc(CI)cs2)CC1 [VI-1, tert-Butyl 4-[4-(iodomethyl)-1,3-thiazol-2-yl]piperidine-1-carboxylate]
- chromatographic logP [1, 5]: 3.71

Structure (SMILES): O=C(Cn1nc(C(F)F)cc1C(F)F)N1CCC(c2nc(CS(=O)(=O)c3nnnn3-c3ccccc3)cs2)CC1 [Compound I-29]
- logP [3]: 2.97*

Structure (SMILES): O=C(Cn1nc(C(F)F)cc1C(F)F)N1CCC(c2nc(CSC3=NOC(c4ccccc4)C3)cs2)CC1 (stereo not shown) [Compound I-58, 2-[3,5-Bis(difluoromethyl)-1H-pyrazol-1-yl]-1-{4-[4-({[5-phenyl-4,5-dihydro-1,2-oxazol-3-yl]sulphanyl}methyl)-1,3-thiazol-2-yl]piperidin-1-yl}ethanone]
- chromatographic logP [1, 5]: 3.4
- chromatographic logP [1, 6]: 3.4

Structure (SMILES): COc1ccc(OC)c(NC(=O)N2CCC(c3nc(CSc4nnnn4-c4ccccc4)cs3)CC2)c1 [Compound I-25]
- logP [1, 7]: 3.26*

Structure (SMILES): Cc1cc(C(F)(F)F)nn1CC(=O)N1CCC(c2nc(CS(=O)(=O)C3CCCCC3)cs2)CC1 [Compound I-7, 1-(4-{4-[(Cyclohexylsulphonyl)methyl]-1,3-thiazol-2-yl}piperidin-1-yl)-2-[5-methyl-3-(trifluoromethyl)-1H-pyrazol-1-yl]ethanone]
- chromatographic logP [1, 5]: 2.9
- chromatographic logP [1, 6]: 2.9
- chromatographic logP [1, 8]: 2.87
- pest or weed control at 500 ppm [2]: ≥ 70%

Structure (SMILES): O=C(Cn1nc(C(F)F)cc1C(F)F)N1CCC(c2nc(CSc3ccccc3-c3ccccc3)cs2)CC1 [Compound I-19]
- logP [1, 7]: 4.36*

Structure (SMILES): O=C(Nc1cc(F)ccc1F)N1CCC(c2nc(CSc3nnnn3-c3ccccc3)cs2)CC1 [Compound I-56]
- logP [1, 7]: 3.27*

Structure (SMILES): COc1ccc(C)cc1NC(=O)N1CCC(c2nc(CSc3nnnn3-c3ccccc3)cs2)CC1 [Compound I-33]
- logP [3]: 3.5*

Structure (SMILES): Cc1cc(C(F)(F)F)nn1CC(=O)N1CCC(c2nc(C[S+]([O-])c3cccc4cccnc34)cs2)CC1 (stereo not shown) [Compound I-12, 1-(4-{4-[(Quinolin-8-ylsulphinyl)methyl]-1,3-thiazol-2-yl}piperidin-1-yl)-2-[5-methyl-3-(trifluoromethyl)-1H-pyrazol-1-yl]ethanone]
- chromatographic logP [1, 5]: 2.48
- chromatographic logP [1, 6]: 2.48

Structure (SMILES): Cc1ccc(C)c(NC(=O)N2CCC(c3nc(CSC45CC6CC(CC(C6)C4)C5)cs3)CC2)c1 [Compound I-72]
- logP [3]: 5.38*

Structure (SMILES): Cc1ccc(C)c(CC(=O)N2CCC(c3nc(CSC45CC6CC(CC(C6)C4)C5)cs3)CC2)c1 [Compound I-27]
- logP [1, 7]: 5.99*

Structure (SMILES): O=C(Nc1cc(C(F)(F)F)ccc1Cl)N1CCC(c2nc(CSc3nnnn3-c3ccccc3)cs2)CC1 [Compound I-76]
- logP [1, 7]: 4.2*

Structure (SMILES): Cc1ccc(F)cc1NC(=O)N1CCC(c2nc(CSc3nnnn3-c3ccccc3)cs2)CC1 [Compound I-63]
- logP [1, 7]: 3.2*

Structure (SMILES): Cc1ccc([N+](=O)[O-])cc1NC(=O)N1CCC(c2nc(CSc3nnnn3-c3ccccc3)cs2)CC1 [Compound I-18]
- logP [3]: 3.09*

Structure (SMILES): Cc1cc(C(F)(F)F)nn1CC(=O)N1CCC(c2nc(CS(=O)(=O)c3cccc4cccnc34)cs2)CC1 [Compound I-9, 1-(4-{4-[(Quinolin-8-ylsulphonyl)methyl]-1,3-thiazol-2-yl}piperidin-1-yl)-2-[5-methyl-3-(trifluoromethyl)-1H-pyrazol-1-yl]ethanone]
- chromatographic logP [1, 5]: 2.63
- chromatographic logP [1, 6]: 2.63
- pest or weed control at 500 ppm [2]: ≥ 70%

Structure (SMILES): Cc1cc(C(F)(F)F)nn1CC(=O)N1CCC(c2nc(CSc3ccccc3-c3ccccc3)cs2)CC1 [Compound I-69]
- logP [1, 7]: 4.49*

Structure (SMILES): Cc1noc(C)c1NC(=O)N1CCC(c2nc(CSc3nnnn3-c3ccccc3)cs2)CC1 [Compound I-75]
- logP [1, 7]: 2.22*

Structure (SMILES): O=C(Nc1cc(Cl)ccc1Cl)N1CCC(c2nc(CSc3nnnn3-c3ccccc3)cs2)CC1 [Compound I-49]
- logP [3]: 3.95*

From US20130090476A1, “Thiazolylpiperidine Derivatives as Fungicides” (priority 2009, published 2013)
